Reference: patent publication US20250230193A1, “CYCLIC COMPOUND HAVING SELECTIVE KRAS INHIBITORY EFFECT ON HRAS AND NRAS” (CHUGAI SEIYAKU KABUSHIKI KAISHA, priority 2022, published 2025)
Where a SMILES comes first, the peptide text is derived from it. Bridges are numbered along the chain shown (N, C = ends). [ ]: non-standard residue; d: D form. The star is where a group is joined. hPhe(3-Cl-4-CF3) = N[C@@H](CCc1ccc(C(F)(F)F)c(Cl)c1)C(=O)O; NPrPhe(4-CF3) = CCCN[C@@H](Cc1ccc(C(F)(F)F)cc1)C(=O)O; NMeGly(cPent) = CN[C@H](C(=O)O)C1CCCC1; NMeD = CN[C@@H](CC(=O)O)C(=O)O; NMeL = CN[C@@H](CC(C)C)C(=O)O; Pip = O=C(O)[C@@H]1CCCCN1; Morpholide = C1CN(*)CCO1; Ac5c = NC1(C(=O)O)CCCC1; NEtG = CCNCC(=O)O; Sar = CNCC(=O)O

Experiments:
[1] = molecular target: GDP-bound NRAS wild-type protein (Homo sapiens, UniProt P01111); test: Binding to NRAS by surface plasmon resonance (SPR), Single Cycle Kinetics
[2] = molecular target: GDP-bound HRAS wild-type protein (Homo sapiens, UniProt P01112); test: Binding to HRAS by surface plasmon resonance (SPR), Single Cycle Kinetics
Sequence of GDP-bound HRAS wild-type protein (P01112 whole entry): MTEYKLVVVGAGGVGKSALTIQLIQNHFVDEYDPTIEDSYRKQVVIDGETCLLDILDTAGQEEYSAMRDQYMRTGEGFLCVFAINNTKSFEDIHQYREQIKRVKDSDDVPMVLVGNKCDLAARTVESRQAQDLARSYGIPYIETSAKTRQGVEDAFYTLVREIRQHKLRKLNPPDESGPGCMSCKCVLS

Sequence of GDP-bound NRAS wild-type protein (P01111 whole entry): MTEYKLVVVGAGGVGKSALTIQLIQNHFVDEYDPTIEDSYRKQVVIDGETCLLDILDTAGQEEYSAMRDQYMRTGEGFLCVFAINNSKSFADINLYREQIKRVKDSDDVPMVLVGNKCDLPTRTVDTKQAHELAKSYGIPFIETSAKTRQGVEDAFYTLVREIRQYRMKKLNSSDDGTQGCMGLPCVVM

CCO[C@@H]1C[C@H]2C(=O)NC3(CCC3)C(=O)N(C)[C@@H](C3CCCC3)C(=O)N(C)[C@H](C(=O)N(C)CC)CC(=O)N(C)[C@@H](CC3CC3)C(=O)N[C@@H]([C@@H](C)CC)C(=O)N(C)CC(=O)N(C)[C@H]3C/C=C\CCN(C3=O)[C@@H](Cc3ccc(C)cc3)C(=O)N(C)CC(=O)N[C@@H](CCc3ccc(C(F)(F)F)c(OC)c3)C(=O)N2C1 [PP1879]
NRAS/KRAS (ratio of KD value for NRAS to KD value for KRAS) ([1]; KD ratio, GDP-bound NRAS wild-type vs GDP-bound KRAS wild-type, SPR): A (a compound having 10 or more and less than 20 is denoted as A) | HRAS/KRAS (ratio of KD value for HRAS to KD value for KRAS) ([2]; KD ratio, GDP-bound HRAS wild-type vs GDP-bound KRAS wild-type, SPR): B (a compound having 3 or more and less than 10 is denoted as B)

CCC(CC)[C@@H]1NC(=O)[C@H](CC(C)C)N(C)C(=O)C[C@@H](C(=O)N2CCOCC2)N(C)C(=O)[C@H](C2CCCC2)N(C)C(=O)C2(CCCC2)NC(=O)[C@@H]2CCCN2C(=O)[C@H](CCc2cc(F)c(C(F)(F)F)c(F)c2)NC(=O)CN(C)C(=O)[C@H](Cc2ccc(C(F)(F)F)cc2)N2CCCC[C@@H](C2=O)N(C)C(=O)CN(C)C1=O [PP0597]
NRAS/KRAS (ratio of KD value with respect to GDP-bound NRAS wild-type protein to KD value with respect to KRAS) ([1]; KD ratio NRAS/KRAS, SPR): B (a compound having 3 or more and less than 10 is denoted as B) | HRAS/KRAS (ratio of KD value with respect to GDP-bound HRAS wild-type protein to KD value with respect to KRAS) ([2]; KD ratio HRAS/KRAS, SPR): B (a compound having 3 or more and less than 10 is denoted as B)

CCOC[C@H]1C(=O)N[C@@H]([C@@H](C)CC)C(=O)N(C)CC(=O)N(C)[C@H]2C/C=C\CCN(C2=O)[C@@H](Cc2ccc(C)cc2)C(=O)N(C)CC(=O)N[C@@H](CCc2ccc(C(F)(F)F)c(OC)c2)C(=O)N2C[C@H](OCC)C[C@H]2C(=O)NC2(CC(C)(C)C2)C(=O)N(C)[C@@H](C2CCCC2)C(=O)N(C)[C@H](C(=O)N(CC)CC)CC(=O)N1C [PP2406]
NRAS/KRAS (ratio of KD value with respect to NRAS to KD value with respect to KRAS) ([1]; SPR, GDP-bound NRAS wild-type vs GDP-bound KRAS wild-type): A (a compound having 10 or more and less than 20 is denoted as A) | HRAS/KRAS (ratio of KD value with respect to HRAS to KD value with respect to KRAS) ([2]; SPR, GDP-bound HRAS wild-type vs GDP-bound KRAS wild-type): A (a compound having 10 or more and less than 20 is denoted as A)

CCCN1C(=O)CN(C)C(=O)CN(CC)C(=O)[C@H]([C@@H](C)CC)NC(=O)[C@H](CC(C)C)N(C)C(=O)C[C@@H](C(=O)N2CCOCC2)N(C)C(=O)[C@H](C2CCCC2)N(C)C(=O)C2(CCCC2)NC(=O)[C@@H]2CCCCN2C(=O)[C@H](CCc2ccc(C(F)(F)F)c(Cl)c2)NC(=O)CN(C)C(=O)[C@@H]1Cc1ccc(C(F)(F)F)cc1 [PP0297] ([NMeL]I[NEtG][Sar][NPrPhe(4-CF3)][Sar][hPhe(3-Cl-4-CF3)][Pip][Ac5c][NMeGly(cPent)][NMeD]-Morpholide; lactam N-11)
NRAS/KRAS (ratio of KD for GDP-bound NRAS wild-type to KD for KRAS) ([1]; KD ratio NRAS/KRAS, SPR): B (a compound having 3 or more and less than 10 is denoted as B) | HRAS/KRAS (ratio of KD for GDP-bound HRAS wild-type to KD for KRAS) ([2]; KD ratio HRAS/KRAS, SPR): C (A compound having a KD ratio of 0.1 or more and less than 3 is denoted as C)

CC[C@H](C)[C@@H]1NC(=O)[C@H](CC)N(C)C(=O)C[C@@H](C(=O)N(C)C)N(C)C(=O)[C@H](C2CCCC2)N(C)C(=O)C2(CCC2)NC(=O)[C@@H]2CCCCN2C(=O)[C@H](CCc2cc(F)c(C(F)(F)F)c(F)c2)NC(=O)CN(C)C(=O)[C@H](Cc2ccc(C(F)(F)F)cc2)N2CCCC[C@@H](C2=O)N(C)C(=O)CN(C)C1=O [PP0658]
NRAS/KRAS (ratio of KD value with respect to GDP-bound NRAS wild-type protein to KD value with respect to KRAS) ([1]; KD ratio NRAS/KRAS, SPR): C (A compound having a KD ratio of 0.1 or more and less than 3 is denoted as C) | HRAS/KRAS (ratio of KD value with respect to GDP-bound HRAS wild-type protein to KD value with respect to KRAS) ([2]; KD ratio HRAS/KRAS, SPR): B (a compound having 3 or more and less than 10 is denoted as B)

CCC[C@H]1C(=O)N[C@@H]([C@@H](C)CC)C(=O)N2CCC[C@H]2C(=O)N(C)[C@H]2C/C=C\CCN(C2=O)[C@@H](Cc2ccc(C)cc2)C(=O)N(C)CC(=O)N[C@@H](CCc2ccc(C(F)(F)F)c(OC)c2)C(=O)N2C[C@H](OCC)C[C@H]2C(=O)N(C)C2(CCC2)C(=O)N(C)[C@@H](C2CCCC2)C(=O)N(C)[C@H](C(=O)N2CCCC2)CC(=O)N1C [PP3102, (1S,4S,10S,13S,17S,20S,26S,28R,32S,38S,42Z)-20-cyclopentyl-28-ethoxy-32-[2-[3-methoxy-4-(trifluoromethyl)phenyl]ethyl]-2,14,18,21,24,36-hexamethyl-10-[(1S)-1-methylpropyl]-13-propyl-38-(p-tolylmethyl)-17-(pyrrolidine-1-carbonyl)spiro[2,8,11,14,18,21,24,30,33,36,39-undecazatetracyclo[37.5.1.0^4,8.0^26,30]pentatetracont-42-ene-23,1′-cyclobutane]-3,9,12,15,19,22,25,31,34,37,45-undecone]
NRAS/KRAS (ratio of KD value with respect to GDP-bound NRAS wild-type protein to KD value with respect to KRAS) ([1]; KD ratio NRAS/KRAS, SPR, GDP-bound wild-type proteins): A (a compound having 10 or more and less than 20 is denoted as A) | HRAS/KRAS (ratio of KD value with respect to GDP-bound HRAS wild-type protein to KD value with respect to KRAS) ([2]; KD ratio HRAS/KRAS, SPR, GDP-bound wild-type proteins): A (a compound having 10 or more and less than 20 is denoted as A)

CCC(CC)[C@H]1C(=O)N(C)[C@H](C(=O)N(C)C)CC(=O)N(C)[C@@H](COC)C(=O)N[C@@H]([C@@H](C)CC)C(=O)N(C)CC(=O)N(C)[C@H]2C/C=C\CCN(C2=O)[C@@H](Cc2ccc(C)cc2)C(=O)N(C)CC(=O)N[C@@H](CCc2ccc(Cl)c(Cl)c2)C(=O)N2C[C@H](OC3CCCC3)C[C@H]2C(=O)N(C)C2(CC(C)(C)C2)C(=O)N1C [PP2818]
NRAS/KRAS (ratio of KD value with respect to GDP-bound NRAS wild-type protein to KD value with respect to KRAS) ([1]; KD ratio NRAS/KRAS, class symbols): A (a compound having 10 or more and less than 20 is denoted as A) | HRAS/KRAS (ratio of KD value with respect to GDP-bound HRAS wild-type protein to KD value with respect to KRAS) ([2]; KD ratio HRAS/KRAS, class symbols): A (a compound having 10 or more and less than 20 is denoted as A)
